Laboratory results taken from patent US8952039B2, “Pyridone derivatives and their use in the treatment, ameloriation or prevention of a viral disease” (priority 2013, dated 2015).

Biological target: T1, influenza A virus (IAV) PA-Nter fragment (amino acids 1-209) (Influenza A virus, UniProt P31343)
T1 construct: PA-Nter fragment (amino acids 1-209); made in house
Assay: FRET endonuclease activity assay
Assay type: biochemical
Details: for IC50: calculated from initial reaction velocities (v0), 0.5 μM PA-Nter, 1.6 μM RNA substrate; for inhibition at 10 µM: 10 μM compound, % reduction of v0 compared to untreated

In the case of `Cc1ccc(S(=O)(=O)NCc2cc(=O)c(O)c(C(=O)O)n2C)cc1`, the IC50 is reported as 970 nM.
Compound `CNC(=O)c1c(O)c(=O)cc(CNS(=O)(=O)c2cccc(C)c2)n1C` has an inhibition at 10 µM of 33%.
For `Cn1c(Cc2ccccc2-c2ccccc2)cc(=O)c(O)c1C(=O)O`, the IC50 was 400 nM.
`CC(C)NC(=O)c1c(O)c(=O)cc(Cc2ccccc2-c2ccccc2)n1C` gave an inhibition at 10 µM of 13%.
`CNC(=O)c1c(O)c(=O)cc(CNS(=O)(=O)c2ccccc2Cl)n1C` showed an IC50 of 9000 nM.
For `CC(C)NC(=O)c1c(O)c(=O)cc(CNS(=O)(=O)c2ccc(Cl)cc2)n1C`, the inhibition at 10 µM was 11%.
For `CNC(=O)c1c(O)c(=O)cc(CNS(=O)(=O)c2ccccc2C)n1C`, the IC50 was 12200 nM.
`CC(C)NC(=O)c1c(O)c(=O)ccn1C(C)Cc1ccccc1` (centres unmarked) showed an inhibition at 10 µM of 7%.
Work on `CNC(=O)c1c(O)c(=O)cc(CNS(=O)(=O)c2cccc(Cl)c2)n1C` yielded an inhibition at 10 µM of 23%.
With `CNC(=O)c1c(O)c(=O)cc(Cc2ccccc2-c2ccccc2)n1C` the inhibition at 10 µM was 10%.
With `CNC(=O)c1c(O)c(=O)cc(CNS(=O)(=O)c2ccccc2)n1C` the inhibition at 10 µM was 13%.
Work on `Cc1ccccc1S(=O)(=O)NCc1cc(=O)c(O)c(C(=O)NC(C)C)n1C` yielded an IC50 of 4600 nM.
With `CC(C)NC(=O)c1c(O)c(=O)cc(CNS(=O)(=O)c2ccccc2)n1C` the inhibition at 10 µM was 13%.
`CC(C)NC(=O)c1c(O)c(=O)cc(CNS(=O)(=O)c2cccc(Cl)c2)n1C` gave an inhibition at 10 µM of 13%.
Work on `CNC(=O)c1c(O)c(=O)cc(CNS(=O)(=O)c2ccc(C)cc2)n1C` yielded an inhibition at 10 µM of 10%.
Compound `Cc1ccccc1S(=O)(=O)NCc1cc(=O)c(O)c(C(=O)O)n1C` has an IC50 of 280 nM.
For `Cn1c(Cc2ccccc2-c2ccccc2)cc(=O)c(O)c1C(N)=O`, the inhibition at 10 µM was 17%.
`CC(C)NC(=O)c1c(O)c(=O)cc(CNS(=O)(=O)c2ccccc2Cl)n1C` was tested, and the IC50 was 6300 nM.
Work on `Cc1cccc(S(=O)(=O)NCc2cc(=O)c(O)c(C(=O)NC(C)C)n2C)c1` yielded an inhibition at 10 µM of 36%.
With `Cn1c(CNS(=O)(=O)c2ccc(Cl)cc2)cc(=O)c(O)c1C(=O)O` the IC50 was 1140 nM.
`CNC(=O)c1c(O)c(=O)cc(CNS(=O)(=O)c2ccc(Cl)cc2)n1C` gave an inhibition at 10 µM of 7%.
For `Cc1cccc(S(=O)(=O)NCc2cc(=O)c(O)c(C(=O)O)n2C)c1`, the IC50 was 530 nM.
`Cc1ccc(S(=O)(=O)NCc2cc(=O)c(O)c(C(=O)NC(C)C)n2C)cc1` showed an inhibition at 10 µM of 8%.
`Cn1c(CNS(=O)(=O)c2ccccc2Cl)cc(=O)c(O)c1C(=O)O` was tested, and the IC50 was 110 nM.
`Cn1c(CNS(=O)(=O)c2ccccc2)cc(=O)c(O)c1C(=O)O` gave an IC50 of 560 nM.
Compound `Cn1c(CNS(=O)(=O)c2cccc(Cl)c2)cc(=O)c(O)c1C(=O)O` has an IC50 of 150 nM.
